Results on eleven compounds are retold here after patent publication US20230139171A1 (SITA Information Networking Computing UK Limited, priority 2019, published 2023).

Common to all, as to assay type: cell-based
One experiment has as its target T1, human TLR7 (Homo sapiens, UniProt Q9NYK1).
T1 construct: host or cells: HEK-Blue cells
T1 sequence (Q9NYK1 27-1049): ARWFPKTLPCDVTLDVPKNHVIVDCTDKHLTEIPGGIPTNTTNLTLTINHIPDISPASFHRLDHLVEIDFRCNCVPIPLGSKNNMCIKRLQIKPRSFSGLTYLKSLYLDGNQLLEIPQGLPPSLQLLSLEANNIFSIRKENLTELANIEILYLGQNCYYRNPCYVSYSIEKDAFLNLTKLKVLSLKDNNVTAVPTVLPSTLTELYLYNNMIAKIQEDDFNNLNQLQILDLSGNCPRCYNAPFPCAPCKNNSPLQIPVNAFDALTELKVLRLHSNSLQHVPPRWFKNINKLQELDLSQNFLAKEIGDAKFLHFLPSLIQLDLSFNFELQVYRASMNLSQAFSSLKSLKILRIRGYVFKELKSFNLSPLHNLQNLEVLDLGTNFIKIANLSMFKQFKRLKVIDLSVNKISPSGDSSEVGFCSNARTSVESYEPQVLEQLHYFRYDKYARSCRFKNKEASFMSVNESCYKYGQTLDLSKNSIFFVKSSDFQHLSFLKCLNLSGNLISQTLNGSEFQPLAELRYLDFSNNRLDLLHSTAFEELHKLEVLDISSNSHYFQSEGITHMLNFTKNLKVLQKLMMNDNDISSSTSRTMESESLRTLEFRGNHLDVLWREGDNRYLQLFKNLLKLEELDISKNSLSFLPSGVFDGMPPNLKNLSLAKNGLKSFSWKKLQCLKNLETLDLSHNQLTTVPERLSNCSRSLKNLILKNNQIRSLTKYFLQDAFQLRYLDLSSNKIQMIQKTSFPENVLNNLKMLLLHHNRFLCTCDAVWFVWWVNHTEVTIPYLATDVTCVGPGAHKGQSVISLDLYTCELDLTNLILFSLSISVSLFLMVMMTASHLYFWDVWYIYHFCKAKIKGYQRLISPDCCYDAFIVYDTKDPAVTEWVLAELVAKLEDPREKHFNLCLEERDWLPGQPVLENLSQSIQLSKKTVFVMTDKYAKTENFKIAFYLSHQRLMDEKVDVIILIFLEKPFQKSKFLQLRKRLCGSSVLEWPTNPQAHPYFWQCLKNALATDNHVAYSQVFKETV
Description: TLR7 inhibition reporter assay (HEK-Blue cells, SEAP reporter, gardiquimod stimulation). Particulars: HEK-Blue cells overexpressing human TLR7, SEAP reporter, gardiquimod 7.5 μM; read-out: TLR7 IC50. The gist of the method: (§1)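 Human TLR7/8/9 HEK-Blue reporter lines; dose range 0.05 nM–50 μM; 30 min RT preincubation; stimulus gardiquimod 7.5 μM / R848 15.9 μM / ODN2006 5 nM respectively; 22 h, 37 °C; SEAP detected colorimetrically.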

The next experiment deals with T2, human TLR8 (Homo sapiens, UniProt Q9NR97).
T2 construct: host or cells: HEK-Blue cells
T2 sequence (Q9NR97 27-1041): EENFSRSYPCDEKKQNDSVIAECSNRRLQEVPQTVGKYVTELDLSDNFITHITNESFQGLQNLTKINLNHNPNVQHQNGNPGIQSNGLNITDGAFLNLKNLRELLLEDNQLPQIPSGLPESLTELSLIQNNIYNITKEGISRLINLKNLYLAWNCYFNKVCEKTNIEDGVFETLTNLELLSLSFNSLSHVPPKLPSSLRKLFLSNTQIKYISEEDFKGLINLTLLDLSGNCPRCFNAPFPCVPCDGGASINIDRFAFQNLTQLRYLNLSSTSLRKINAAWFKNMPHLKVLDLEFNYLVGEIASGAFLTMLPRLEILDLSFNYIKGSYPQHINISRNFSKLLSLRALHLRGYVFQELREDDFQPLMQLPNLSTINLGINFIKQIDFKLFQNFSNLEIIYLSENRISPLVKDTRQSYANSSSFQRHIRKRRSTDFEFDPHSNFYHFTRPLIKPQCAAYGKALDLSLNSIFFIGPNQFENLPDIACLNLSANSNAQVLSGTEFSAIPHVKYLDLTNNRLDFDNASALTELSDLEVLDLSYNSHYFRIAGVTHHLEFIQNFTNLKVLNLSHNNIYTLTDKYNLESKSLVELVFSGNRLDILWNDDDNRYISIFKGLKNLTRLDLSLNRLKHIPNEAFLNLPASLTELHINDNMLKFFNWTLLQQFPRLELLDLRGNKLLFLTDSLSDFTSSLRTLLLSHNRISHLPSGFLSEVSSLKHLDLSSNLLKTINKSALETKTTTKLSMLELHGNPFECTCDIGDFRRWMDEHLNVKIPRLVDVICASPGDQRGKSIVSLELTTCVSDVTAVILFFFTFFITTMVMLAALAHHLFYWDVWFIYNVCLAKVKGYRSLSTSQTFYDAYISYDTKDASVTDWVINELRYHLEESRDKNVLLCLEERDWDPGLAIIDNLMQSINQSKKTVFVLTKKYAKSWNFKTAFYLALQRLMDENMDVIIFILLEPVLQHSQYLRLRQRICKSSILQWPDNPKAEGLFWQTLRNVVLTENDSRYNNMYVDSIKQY
Nature of the experiment: TLR8 inhibition reporter assay (HEK-Blue cells, SEAP reporter, R848 stimulation). Particulars: HEK-Blue cells overexpressing human TLR8, SEAP reporter, R848 15.9 μM; read-out: TLR8 IC50. The gist of the method:
as §1

The target of a further experiment is T3, human TLR9 (Homo sapiens, UniProt Q9NR96).
T3 construct: host or cells: HEK-Blue cells
T3 sequence (Q9NR96 26-1032): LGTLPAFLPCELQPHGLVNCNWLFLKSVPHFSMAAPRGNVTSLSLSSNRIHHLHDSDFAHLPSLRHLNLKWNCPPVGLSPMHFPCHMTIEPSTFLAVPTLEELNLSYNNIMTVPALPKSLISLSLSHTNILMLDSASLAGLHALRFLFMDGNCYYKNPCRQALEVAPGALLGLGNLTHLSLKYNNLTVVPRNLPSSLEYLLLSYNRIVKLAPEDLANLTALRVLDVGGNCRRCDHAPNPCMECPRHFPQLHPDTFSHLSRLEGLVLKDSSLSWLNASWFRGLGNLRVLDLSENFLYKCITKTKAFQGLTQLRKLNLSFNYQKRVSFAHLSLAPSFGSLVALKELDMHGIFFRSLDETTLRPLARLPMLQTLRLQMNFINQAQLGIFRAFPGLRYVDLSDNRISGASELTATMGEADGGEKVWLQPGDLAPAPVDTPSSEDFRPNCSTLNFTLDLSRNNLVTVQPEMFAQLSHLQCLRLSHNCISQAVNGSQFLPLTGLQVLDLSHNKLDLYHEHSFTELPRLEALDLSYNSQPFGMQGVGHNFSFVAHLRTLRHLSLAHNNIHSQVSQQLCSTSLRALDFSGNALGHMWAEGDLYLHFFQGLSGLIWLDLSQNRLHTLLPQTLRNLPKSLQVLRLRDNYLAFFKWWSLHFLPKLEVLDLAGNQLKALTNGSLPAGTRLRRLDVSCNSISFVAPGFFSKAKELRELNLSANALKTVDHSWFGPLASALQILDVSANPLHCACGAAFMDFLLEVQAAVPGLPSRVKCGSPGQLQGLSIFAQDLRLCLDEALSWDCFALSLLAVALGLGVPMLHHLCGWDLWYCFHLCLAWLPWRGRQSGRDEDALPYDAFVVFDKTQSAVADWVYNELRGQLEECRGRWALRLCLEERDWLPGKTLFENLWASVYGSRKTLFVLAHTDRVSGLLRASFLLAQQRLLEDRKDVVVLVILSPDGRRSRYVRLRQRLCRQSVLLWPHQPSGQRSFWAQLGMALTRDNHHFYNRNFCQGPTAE
Nature of the experiment: TLR9 inhibition reporter assay (HEK-Blue cells, SEAP reporter, ODN2006 stimulation). Particulars: HEK-Blue cells overexpressing human TLR9, SEAP reporter, ODN2006 5 nM. The gist of the method: as §1

In the case of `Cc1c(-c2[nH]c3sc(N4C[C@@H](C)N(C(=O)CN(C)C)C[C@@H]4C)nc3c2C(C)C)cn2ncnc2c1C` [Example 341, 1-((2R,5S)-4-(5-(7,8-dimethyl-[1,2,4]triazolo[1,5-a]pyridin-6-yl)-6-isopropyl-4H-pyrrolo[3,2-d]thiazol-2-yl)-2,5-dimethylpiperazin-1-yl)-2-(dimethylamino) ethan-1-one], the IC50 at human TLR7 is 7.86 nM; at human TLR8, 9 nM; on human TLR9 it was 16500 nM.

Consider `Cc1c(-c2[nH]c3sc(N4CCN(C(=O)CN(C)C)C[C@@H]4C)nc3c2C(C)C)cn2ncnc2c1C` [Example 346, (S)-1-(4-(5-(7,8-dimethyl-[1,2,4]triazolo[1,5-a]pyridin-6-yl)-6-isopropyl-4H-pyrrolo[3,2-d]thiazol-2-yl)-3-methylpiperazin-1-yl)-2-(dimethylamino)ethan-1-one], for which the IC50 is 6.3 nM at human TLR7, 7.94 nM at human TLR8 and 19200 nM against human TLR9.

In the case of `Cc1c(-c2[nH]c3sc(N4CCN(C5CCOCC5)C[C@@H]4C)nc3c2C(C)C)cn2ncnc2c1C` [Example 350, (S)-5-(7,8-dimethyl-[1,2,4]triazolo[1,5-a]pyridin-6-yl)-6-isopropyl-2-(2-methyl-4-(tetrahydro-2H-pyran-4-yl)piperazin-1-yl)-4H-pyrrolo[3,2-d]thiazole], the IC50 at human TLR7 came to 8.11 nM; on human TLR8, 0.12 nM; on human TLR9, 21700 nM.

For `Cc1c(-c2[nH]c3sc(N4CCN(C(C)C)C[C@@H]4C)nc3c2C(C)C)cn2ncnc2c1C` [Example 351, (S)-5-(7,8-dimethyl-[1,2,4]triazolo[1,5-a]pyridin-6-yl)-6-isopropyl-2-(4-isopropyl-2-methylpiperazin-1-yl)-4H-pyrrolo[3,2-d]thiazole], the IC50 was found to be 8.23 nM at human TLR7, 0.98 nM on human TLR8 and 19800 nM at human TLR9.

Consider `Cc1c(-c2[nH]c3sc(N4CCN(CC5CC5)C[C@@H]4C)nc3c2C(C)C)cn2ncnc2c1C` [Example 352, (S)-2-(4-(cyclopropylmethyl)-2-methylpiperazin-1-yl)-5-(7,8-dimethyl-[1,2,4]triazolo[1,5-a]pyridin-6-yl)-6-isopropyl-4H-pyrrolo[3,2-d]thiazole], for which the IC50 at human TLR7 was determined as 14.4 nM; at human TLR8, 1.09 nM; against human TLR9, 24500 nM.

Turning to `Cc1cc(-c2[nH]c3sc(N4CCN(C(C)C)C[C@H]4C)nc3c2C(C)C)cn2ncnc12` [Example 366, (R)-6-isopropyl-2-(4-isopropyl-2-methylpiperazin-1-yl)-5-(8-methyl-[1,2,4]triazolo[1,5-a]pyridin-6-yl)-4H-pyrrolo[3,2-d] thiazole], the half-maximal inhibitory concentration (IC50) is > 3130 nM at human TLR7, > 3130 nM at human TLR8 and 6260 nM at human TLR9.

As for `Cc1c(-c2[nH]c3sc(C(=O)NCCN4CCCC4)nc3c2C(C)C)cn2ncnc2c1C` [Example 370, 5-(7,8-dimethyl-[1,2,4]triazolo[1,5-a]pyridin-6-yl)-6-isopropyl-N-(2-(pyrrolidin-1-yl)ethyl)-4H-pyrrolo[3,2-d]thiazole-2-carboxamide], the IC50 at human TLR7 is 12.4 nM; at human TLR8 it was 1.38 nM; against human TLR9 it was 6440 nM.

Take `Cc1c(-c2[nH]c3sc(C(=O)NCCN(C)C)nc3c2C(C)C)cn2ncnc2c1C` [Example 372, 5-(7,8-dimethyl-[1,2,4]triazolo[1,5-a]pyridin-6-yl)-N-(2-(dimethylamino)ethyl)-6-isopropyl-4H-pyrrolo[3,2-d]thiazole-2-carboxamide]: the IC50 at human TLR7 came out at 10.7 nM; at human TLR8 it was 2.49 nM; against human TLR9 it was 8880 nM.

As for `Cc1c(-c2[nH]c3sc(C(=O)N4CCS(=O)(=O)CC4)nc3c2C(C)C)cn2ncnc2c1C` [Example 373, (5-(7,8-dimethyl-[1,2,4]triazolo[1,5-a]pyridin-6-yl)-6-isopropyl-4H-pyrrolo[3,2-d]thiazol-2-yl)(1,1-dioxidothiomorpholino)methanone], the IC50 at human TLR7 is 81.9 nM; on human TLR8, 34.5 nM; against human TLR9 it was 42100 nM.

On to `Cc1c(-c2[nH]c3sc(C(=O)NCC(C)(C)N4CCOCC4)nc3c2C(C)C)cn2ncnc2c1C` [Example 374, 5-(7,8-dimethyl-[1,2,4]triazolo[1,5-a]pyridin-6-yl)-6-isopropyl-N-(2-methyl-2-morpholinopropyl)-4H-pyrrolo[3,2-d]thiazole-2-carboxamide], for which the IC50 came to 11.7 nM on human TLR7, 9.33 nM on human TLR8 and 41500 nM against human TLR9.

Regarding `CC(=O)N1CCN(C(=O)c2nc3c(C(C)C)c(-c4cn5ncnc5c(C)c4C)[nH]c3s2)CC1` [Example 375, 1-(4-(5-(7,8-dimethyl-[1,2,4]triazolo[1,5-a]pyridin-6-yl)-6-isopropyl-4H-pyrrolo[3,2-d]thiazole-2-carbonyl)piperazin-1-yl)ethan-1-one], the IC50 at human TLR7 was found to be 19.9 nM; at human TLR8, 8.4 nM; against human TLR9, 35600 nM.
